# Tested on: M. tuberculosis H37Rv growth inhibition
# Assay: M. tuberculosis H37Rv growth inhibitors, H37Rv strain (AID 1626)
# Conditions: for IC90: measured here: IC90 against H37Rv; for CC50: measured here: Vero cell cytotoxicity
SMILES,IC50 [µM],IC90 [µM],CC50 [µM]
NS(=O)(=O)c1ccc(CCNc2ncnc3c2c(-c2ccccc2)cn3-c2ccc(F)cc2)cc1,5.77,6.76,> 40
CCC(C)Nc1nc2c(C)cccn2c(=O)c1C=Nc1ccc(OC)cc1 (stereo not drawn),52.4,> 100,
Cc1cc(C)n(-c2nc(SCC(=O)O)c3c4c(sc3n2)COC(C)(C)C4)n1,9.72,> 100,> 40
COc1ccc(CNC(=O)c2sc3nc4c(c(C(F)(F)F)c3c2N)CCC4)cc1OC,12,18.3,
COc1ccccc1NC(=O)CN1CCN(C2c3ccccc3-c3ccccc32)CC1,,> 100,> 40
CCOC(=O)c1ccc(NC(=O)CCc2nc(-c3ccccc3Cl)no2)cc1,0.511,57.8,> 40
COc1ccccc1C(=O)OCC(=O)Nc1ccc(Cl)cn1,22.6,> 100,> 40
COc1cccc(CNc2ccccc2O)c1OCc1ccccc1F,,> 100,> 40
Cc1ccc2c(c1)c1c(n2CC(O)CNC2CCCCC2)CCCC1 (stereo not drawn),6.83,10.2,15.1
O=C(Nc1nc2ccccc2n1CCN1CCOCC1)c1ccc(Cl)cc1,26.5,> 100,> 40
O=C(NCCc1ccc(Cl)cc1)C1CCC(CNc2c(N3CCCCC3)c(=O)c2=O)CC1 (stereo not drawn),11.8,13.4,
COc1ccc(N2CCN(C(=O)CN3CCN(c4nc(-c5ccc(F)cc5)cs4)CC3)CC2)cc1,,,> 40
CCOC(=O)COc1ccc2c(=O)c(-c3ccccc3OC)coc2c1,1.06,2.45,
CCOc1c2c(nc3ccc(Cl)cc13)CCC2,5.14,21.4,> 40
Cc1[nH]n(-c2ccccc2)c(=O)c1N=Nc1nccs1,2.8,5.14,29.5
COc1ccc(NS(=O)(=O)c2ccc3nc(COc4cccc5ccccc45)[nH]c3c2)cc1,9.84,15,29.6
Cc1cc(SCC(=O)OC/C(O)=C(\C#N)c2nc3ccccc3[nH]2)c(C)cc1Br,9.09,12.6,> 40
CC(=O)Oc1ccc2oc3c(c2c1)C(=O)CCC3,12,> 100,
COC(=O)CCCn1c(C)cc(C(=O)CCl)c1C,5.45,18.4,21.1
O=C(CSc1ccncc1)Nc1ccc2ccccc2c1,1.15,> 100,
c1ccc(-c2oc3ncnc(NCCCn4ccnc4)c3c2-c2ccccc2)cc1,7.29,16.4,23.6

SMILES,IC50 [µM],IC90 [µM],CC50 [µM]
Cc1ccc(-c2c[n+](CC(=O)Nc3nc(-c4ccc(F)cc4)cs3)c3n2CCC3)cc1,4.87,7.09,
Cc1nc(SCc2ccccc2F)c2oc3ccccc3c2n1,,> 100,
CCOC(=O)c1ccc(NC(=O)c2cc3c(s2)CCC3)cc1,4.74,> 100,
CCc1nnc(NC(=O)c2ccc3ccccc3n2)s1,12.1,> 100,> 40
CCOC(=O)c1ccc(NC(=O)c2ccc(OC(C)C)c(OC)c2)cc1,14.1,28.2,
Cc1ccc(C(=O)Nc2nnc(-c3ccncc3)o2)cc1,5.94,6.95,> 40
Cc1ccc(C)c(-c2csc(NC(=O)c3cnccn3)n2)c1,2.6,> 100,> 40
O=C1/C(=C/c2cccnc2)Oc2cc(OS(=O)(=O)c3ccc(F)cc3)ccc21,72.6,> 100,
Cn1nc(C(F)(F)F)c2cc(NC(=O)OCC(C)(C)C)sc21,13.3,> 100,
CCOC(=O)C1=C(c2ccccc2)NC(N)=NC1c1ccc(OCc2ccc(Cl)cc2)c(OC)c1 (stereo not drawn),4.55,5.57,22.6
COc1cccc(/C=C/C(=O)c2cccc([N+](=O)[O-])c2)c1,6.89,> 100,35.9
CCOC(=O)c1ccc(NC(=O)CSc2ccc(-c3cccnc3)nn2)cc1,29.1,> 100,> 40
Cc1cccc(OCCCCCn2ccnc2)c1C,10.6,11.6,> 40
COc1cccc(-c2csc(N3CCN(C(=O)NC45CC6CC(CC(C6)C4)C5)CC3)n2)c1,1.09,1.92,> 40
Cc1[nH]n2c(=O)c3c(nc2c1-c1ccccc1)CCCC3,2.89,4.05,22.8
COC(=O)CSc1nc2ccccc2nc1SCC(=O)OC,4.87,12.5,
O=C1CC(=C(c2ccccc2)c2ccccc2)C(=O)N1CCCCN1CCN(c2ccccc2)CC1,17.8,22.7,> 40
O=[N+]([O-])c1cc(C=Nc2ccc3ccccc3c2)ccc1Br,5.95,> 100,
Cn1c(C(C#N)C(=O)c2sc3ccccc3c2Cl)nc2ccccc21 (stereo not drawn),,,> 40
NC1=NC[C@H](Cc2ccccc2)N1CCCCC1CCCCC1,10,13.6,> 40
Cc1cc(=O)oc2ccc(OC(=O)CC(C)C)cc12,,> 100,

SMILES,IC50 [µM],IC90 [µM],CC50 [µM]
CCOC(=O)c1ccc(NC(=O)CSC2=NC(=O)C(CC)C(=O)N2)cc1 (stereo not drawn),24.3,> 100,
CCOC(=O)CSCC(=O)Nc1c(C(=O)C2CC2)oc2ccccc12,5.86,9.32,
Cc1ccc(C(C)C)c(OCc2nn(CC(=O)c3ccc(OC(F)F)cc3)c3[n+]2CCCCC3)c1,1.07,1.46,> 40
Cc1ccc(-c2nc3c(cnn3-c3ccccc3)c(=O)o2)cc1,6.21,13.4,
CCOC(=O)c1ccc(NC(=O)COc2ccccc2CNCCc2ccccc2)cc1,4.77,6.88,25.2
COc1ccc(Nc2ccccc2N)cc1,1.05,2.46,
COc1cccc(-c2cc(C(=O)Nc3nc4ccccc4s3)c3ccccc3n2)c1,8.12,> 100,> 40
O=C(Nc1ccc(F)c(Cl)c1)Nc1csc2ccccc12,54.9,> 100,7.06
COc1ccccc1N1CCN(c2ncc(C(=O)N3CCN(c4cccc(Cl)c4)CC3)c3ccccc23)CC1,,,> 40
CCCN(CCC)C(=O)c1cc([N+](=O)[O-])cc2c1-c1ccc([N+](=O)[O-])cc1C2=C(C#N)C#N,8,9.91,33.6
CSc1ccc(C(=O)C2CCCN(Cc3cc4ccccc4[nH]3)C2)cc1 (stereo not drawn),2.43,2.98,> 40
CC(=O)n1cc(N(C(=O)CCl)c2ccc(C)cc2)c2ccccc21,4.64,17.1,0.471
COCCOC(=O)c1c(C)oc2ccc(OC(=O)c3ccco3)cc12,7.1,> 100,
CCOC(=O)C(C)Sc1ncnc2c1nnn2-c1ccc(F)cc1 (stereo not drawn),2.47,21.6,
Cc1ccc(C(=O)NCCSC(C)(C)C)cc1[N+](=O)[O-],2.96,3.32,
CCCCc1c(C)c(C#N)c2nc3ccccc3n2c1Cl,10.1,> 100,5.35
O=C(Nc1ccc(N2CCCCC2)c(Cl)c1)c1ccc(N2CCOCC2)c([N+](=O)[O-])c1,40.2,> 100,30
C=CCOc1ccc(C=Nc2ccc(OC)cc2)c(O)c1,,> 100,
Cc1cc(-n2c(C)cc(C(=O)COc3ccc4ccc(=O)oc4c3)c2C)no1,8.15,> 100,> 40
OCC#CCSc1nnc(-c2ccc(Br)cc2)o1,0.543,17.9,
COc1ccccc1-c1nc(-c2ccccc2)nc(N2CCN(C)CC2)c1C#N,16.5,22,> 40

SMILES,IC50 [µM],IC90 [µM],CC50 [µM]
Cc1cc(C)c(N=Cc2c(O)n(-c3nccs3)c(=O)c3ccccc23)c(C)c1,13.1,71.4,
CCOC(=O)c1ccc(NS(=O)C23CC4CC(CC(C4)C2)C3)cc1 (stereo not drawn),7.62,> 100,
CCCn1c(NC(=O)c2ccccc2)nc2ccccc21,3.89,> 100,> 40
CCOc1ccc(NC(=O)c2ccccc2CO)cc1,9.45,> 100,
Cc1ccc2c(c1C)NC(=O)C21N2CCCC2C(C(=O)c2ccc3ccccc3c2)C12C(=O)Nc1ccccc12 (stereo not drawn),39.3,> 100,> 40
CCn1cnc2sc(C(=O)Oc3cccc(C)c3)c(C)c2c1=O,< 0.195,2.36,
O=C(Nc1cc(Cl)ccc1O)c1cc2n(n1)C(C(F)(F)F)CC(c1ccc3c(c1)OCO3)N2 (stereo not drawn),,,> 40
CN(C)CCNc1nc2sc3c(c2c(=O)n1CCc1ccccc1)CCCCC3,8.57,11.1,12
Cn1cnc(Sc2ncnc3nc[nH]c23)c1[N+](=O)[O-],8.98,16.1,
COc1cccc(C(=O)Oc2ccccc2/C=C\C(=O)c2cc3ccccc3o2)c1,3.43,5.83,11.4
CCOc1ccc2nc(/N=C/c3nc(-c4ccccc4)oc3O)sc2c1,6.82,> 100,
Cc1cc(NC(=O)c2ccc(C)s2)n(-c2nc3ccccc3[nH]2)n1,,,> 40
CCOC(=O)c1cnn(C(=O)c2ccccc2)c1N,,> 100,
COc1ccc2cc(C(=O)C3CCCN(Cc4cccc(C)n4)C3)ccc2c1 (stereo not drawn),7,14.7,> 40
CCCCCn1c(=O)c(C(=O)Nc2nc3ccccc3[nH]2)c(O)c2ccccc21,0.706,0.757,6.6
COc1ccc(-c2noc(CCC(=O)Nc3ccc(C)c(C)c3)n2)cc1,22.6,> 100,
CC(C)Oc1ccc(C(=O)Nc2ccc(Cl)c(S(=O)(=O)Nc3ccc(Cl)cc3)c2)cc1,11.6,22.4,28.9
O=C(Nc1nc(-c2ccccn2)cs1)c1cc2ccccc2o1,2.62,42.6,> 40
Cn1c(-c2ccccc2)c(C(=O)CCl)c2ccccc21,1.69,4.57,4.07

# From PubChem BioAssay AID1626 (SRMLSC, 2009)
